From patent publication US12077503B2, “Substituted cyclic amides and their use as herbicides” (FMC CORPORATION, priority 2015, dated 2024)

What was measured:
Assay in all cases: Test C preemergence
Type in all cases: in vivo
Settings in all cases: scale 0 to 100, 0 no effect, 100 complete control
[1] = system: pigweed (Amaranthus retroflexus)
Source text: (§1) Seeds of plant species selected from blackgrass (Alopecurus myosuroides), ryegrass, Italian (Italian ryegrass, Lolium multiflorum), wheat (winter wheat, Triticum aestivum), Galium (catchweed bedstraw, Galium aparine), corn (Zea mays), crabgrass, large (large crabgrass, Digitaria sanguinalis), foxtail, giant (giant foxtail, Setaria faberii), johnsongrass (Sorghum halepense), lambsquarters (Chenopodium album), morningglory (Ipomoea coccinea), nutsedge, yellow (yellow nutsedge, Cyperus esculentus), pigweed (Amaranthus retroflexus), ragweed (common ragweed, Ambrosia elatior), soybean (Glycine max), barnyardgrass (Echinochloa crus-galli), oilseed rape (Brassica napus), waterhemp (common waterhemp, Amaranthus rudis) and velvetleaf (Abutilon theophrasti) were planted into a blend of loam soil and sand and treated preemergence with test chemicals formulated in a non-phytotoxic solvent mixture which included a surfactant.
(§2) At the same time, plants selected from these crop and weed species and also Kochia (Kochia scoparia), oat, wild (wild oat, Avena fatua), and chickweed (common chickweed, Stellaria media) were planted in pots containing Sunshine Redi-Earth® planting medium comprising spaghnum peat moss, vermiculite, starter nutrients and dolomitic limestone and treated with postemergence applications of test chemicals formulated in the same manner. Plants ranged in height from 2 to 18 cm (1- to 4-leaf stage) for postemergence treatments. Treated plants and controls were maintained in a greenhouse for 13 to 15 d, after which time all species were compared to controls and visually evaluated. Plant response ratings, summarized in Table C, are based on a scale of 0 to 100 where 0 is no effect and 100 is complete control. A dash (-) response means no test result.

[2] = system: foxtail, giant (giant foxtail, Setaria faberii)
Source text: as §1, §2

[3] = system: ragweed (common ragweed, Ambrosia elatior)
Source text: as §1, §2

[4] = system: crabgrass, large (large crabgrass, Digitaria sanguinalis)
Source text: as §1, §2

[5] = system: ryegrass, Italian (Italian ryegrass, Lolium multiflorum)
Source text: as §1, §2

corn (Zea mays) = system: corn (Zea mays)
Source text: as §1, §2

[6] = system: johnsongrass (Sorghum halepense)
Source text: as §1, §2

[7] = system: oilseed rape (Brassica napus)
Source text: as §1, §2

[8] = system: lambsquarters (Chenopodium album)
Source text: as §1, §2

[9] = system: morningglory (Ipomoea coccinea)
Source text: as §1, §2

soybean (Glycine max) = system: soybean (Glycine max)
Source text: as §1, §2

[10] = system: blackgrass (Alopecurus myosuroides)
Source text: as §1, §2

[11] = system: wheat (winter wheat, Triticum aestivum)
Source text: as §1, §2

[12] = system: waterhemp (common waterhemp, Amaranthus rudis)
Source text: as §1, §2

[13] = system: barnyardgrass (Echinochloa crus-galli)
Source text: as §1, §2

[14] = system: nutsedge, yellow (yellow nutsedge, Cyperus esculentus)
Source text: as §1, §2

[15] = system: velvetleaf (Abutilon theophrasti)
Source text: as §1, §2

[16] = system: Galium (catchweed bedstraw, Galium aparine)
Source text: as §1, §2

## CN1CC(c2cccc(OC(F)(F)C(F)F)c2)C(C(=O)Nc2cccc(F)c2F)C1=O (stereo not drawn) [Compound 392]
[1]; 31 g ai/ha
  Plant response rating, Pigweed: 75
[1]; 62 g ai/ha
  Plant response rating, Pigweed: 80
[1]; 125 g ai/ha
  Plant response rating, Pigweed: 85
[1]; 250 g ai/ha
  Plant response rating, Pigweed: 90
[2]; 31 g ai/ha
  Plant response rating, Foxtail, Giant: 90
[2]; 62 g ai/ha
  Plant response rating, Foxtail, Giant: 95
[2]; 125 g ai/ha
  Plant response rating, Foxtail, Giant: 95
[2]; 250 g ai/ha
  Plant response rating, Foxtail, Giant: 95
[3]; 31 g ai/ha
  Plant response rating, Ragweed: 70
[3]; 62 g ai/ha
  Plant response rating, Ragweed: 45
[3]; 125 g ai/ha
  Plant response rating, Ragweed: 60
[3]; 250 g ai/ha
  Plant response rating, Ragweed: 70
[4]; 31 g ai/ha
  Plant response rating, Crabgrass, Large: 90
[4]; 62 g ai/ha
  Plant response rating, Crabgrass, Large: 95
[4]; 125 g ai/ha
  Plant response rating, Crabgrass, Large: 95
[4]; 250 g ai/ha
  Plant response rating, Crabgrass, Large: 95
[5]; 62 g ai/ha
  Plant response rating, Ryegrass, Italian: 40
[5]; 125 g ai/ha
  Plant response rating, Ryegrass, Italian: 55
[5]; 250 g ai/ha
  Plant response rating, Ryegrass, Italian: 90
Corn (Zea mays); 31 g ai/ha
  Plant response rating, Corn: 45
Corn (Zea mays); 62 g ai/ha
  Plant response rating, Corn: 65
Corn (Zea mays); 125 g ai/ha
  Plant response rating, Corn: 55
Corn (Zea mays); 250 g ai/ha
  Plant response rating, Corn: 75
[6]; 31 g ai/ha
  Plant response rating, Johnsongrass: 70
[6]; 62 g ai/ha
  Plant response rating, Johnsongrass: 85
[6]; 125 g ai/ha
  Plant response rating, Johnsongrass: 85
[6]; 250 g ai/ha
  Plant response rating, Johnsongrass: 90
[7]; 31 g ai/ha
  Plant response rating, Oilseed Rape: 70
[7]; 62 g ai/ha
  Plant response rating, Oilseed Rape: 80
[7]; 125 g ai/ha
  Plant response rating, Oilseed Rape: 85
[7]; 250 g ai/ha
  Plant response rating, Oilseed Rape: 90
[8]; 31 g ai/ha
  Plant response rating, Lambsquarters: 60
[8]; 62 g ai/ha
  Plant response rating, Lambsquarters: 70
[8]; 125 g ai/ha
  Plant response rating, Lambsquarters: 75
[8]; 250 g ai/ha
  Plant response rating, Lambsquarters: 75
[9]; 31 g ai/ha
  Plant response rating, Morningglory: 0
[9]; 62 g ai/ha
  Plant response rating, Morningglory: 0
[9]; 125 g ai/ha
  Plant response rating, Morningglory: 0
[9]; 250 g ai/ha
  Plant response rating, Morningglory: 15
Soybean (Glycine max); 62 g ai/ha
  Plant response rating, Soybean: 100
Soybean (Glycine max); 125 g ai/ha
  Plant response rating, Soybean: 15
Soybean (Glycine max); 250 g ai/ha
  Plant response rating, Soybean: 5
[10]; 31 g ai/ha
  Plant response rating, Blackgrass: 20
[10]; 62 g ai/ha
  Plant response rating, Blackgrass: 45
[10]; 125 g ai/ha
  Plant response rating, Blackgrass: 70
[10]; 250 g ai/ha
  Plant response rating, Blackgrass: 60
[11]; 62 g ai/ha
  Plant response rating, Wheat: 35
[11]; 125 g ai/ha
  Plant response rating, Wheat: 80
[11]; 250 g ai/ha
  Plant response rating, Wheat: 75
[12]; 62 g ai/ha
  Plant response rating, Waterhemp: 85
[12]; 125 g ai/ha
  Plant response rating, Waterhemp: 90
[12]; 250 g ai/ha
  Plant response rating, Waterhemp: 90
[13]; 31 g ai/ha
  Plant response rating, Barnyardgrass: 90
[13]; 62 g ai/ha
  Plant response rating, Barnyardgrass: 90
[13]; 125 g ai/ha
  Plant response rating, Barnyardgrass: 90
[13]; 250 g ai/ha
  Plant response rating, Barnyardgrass: 95
[14]; 31 g ai/ha
  Plant response rating, Nutsedge, Yellow: 0
[14]; 62 g ai/ha
  Plant response rating, Nutsedge, Yellow: 0
[14]; 125 g ai/ha
  Plant response rating, Nutsedge, Yellow: 0
[14]; 250 g ai/ha
  Plant response rating, Nutsedge, Yellow: 0
[15]; 62 g ai/ha
  Plant response rating, Velvetleaf: 40
[15]; 125 g ai/ha
  Plant response rating, Velvetleaf: 60
[15]; 250 g ai/ha
  Plant response rating, Velvetleaf: 70

## CN1CC(c2ccc(C(F)(F)F)c(F)c2)C(C(=O)Nc2cccc(F)c2F)C1=O (stereo not drawn) [Compound 396]
[1]; 31 g ai/ha
  Plant response rating, Pigweed: 85
[1]; 62 g ai/ha
  Plant response rating, Pigweed: 80
[1]; 125 g ai/ha
  Plant response rating, Pigweed: 90
[1]; 250 g ai/ha
  Plant response rating, Pigweed: 95
[2]; 31 g ai/ha
  Plant response rating, Foxtail, Giant: 95
[2]; 62 g ai/ha
  Plant response rating, Foxtail, Giant: 98
[2]; 125 g ai/ha
  Plant response rating, Foxtail, Giant: 98
[2]; 250 g ai/ha
  Plant response rating, Foxtail, Giant: 98
[3]; 31 g ai/ha
  Plant response rating, Ragweed: 65
[3]; 62 g ai/ha
  Plant response rating, Ragweed: 80
[3]; 125 g ai/ha
  Plant response rating, Ragweed: 85
[3]; 250 g ai/ha
  Plant response rating, Ragweed: 85
[4]; 31 g ai/ha
  Plant response rating, Crabgrass, Large: 95
[4]; 62 g ai/ha
  Plant response rating, Crabgrass, Large: 98
[4]; 125 g ai/ha
  Plant response rating, Crabgrass, Large: 98
[4]; 250 g ai/ha
  Plant response rating, Crabgrass, Large: 100
[5]; 62 g ai/ha
  Plant response rating, Ryegrass, Italian: 55
[5]; 125 g ai/ha
  Plant response rating, Ryegrass, Italian: 30
[5]; 250 g ai/ha
  Plant response rating, Ryegrass, Italian: 80
Corn (Zea mays); 31 g ai/ha
  Plant response rating, Corn: 0
Corn (Zea mays); 62 g ai/ha
  Plant response rating, Corn: 50
Corn (Zea mays); 125 g ai/ha
  Plant response rating, Corn: 65
Corn (Zea mays); 250 g ai/ha
  Plant response rating, Corn: 75
[7]; 31 g ai/ha
  Plant response rating, Oilseed Rape: 30
[7]; 62 g ai/ha
  Plant response rating, Oilseed Rape: 70
[7]; 125 g ai/ha
  Plant response rating, Oilseed Rape: 80
[7]; 250 g ai/ha
  Plant response rating, Oilseed Rape: 85
[16]; 31 g ai/ha
  Plant response rating, Galium: 90
[16]; 62 g ai/ha
  Plant response rating, Galium: 90
[16]; 125 g ai/ha
  Plant response rating, Galium: 100
[16]; 250 g ai/ha
  Plant response rating, Galium: 100
[8]; 31 g ai/ha
  Plant response rating, Lambsquarters: 50
[8]; 62 g ai/ha
  Plant response rating, Lambsquarters: 75
[8]; 125 g ai/ha
  Plant response rating, Lambsquarters: 70
[8]; 250 g ai/ha
  Plant response rating, Lambsquarters: 98
[9]; 31 g ai/ha
  Plant response rating, Morningglory: 10
[9]; 62 g ai/ha
  Plant response rating, Morningglory: 40
[9]; 125 g ai/ha
  Plant response rating, Morningglory: 60
[9]; 250 g ai/ha
  Plant response rating, Morningglory: 70
Soybean (Glycine max); 62 g ai/ha
  Plant response rating, Soybean: 0
Soybean (Glycine max); 125 g ai/ha
  Plant response rating, Soybean: 0
Soybean (Glycine max); 250 g ai/ha
  Plant response rating, Soybean: 0
[10]; 31 g ai/ha
  Plant response rating, Blackgrass: 50
[10]; 62 g ai/ha
  Plant response rating, Blackgrass: 50
[10]; 125 g ai/ha
  Plant response rating, Blackgrass: 80
[10]; 250 g ai/ha
  Plant response rating, Blackgrass: 80
[11]; 62 g ai/ha
  Plant response rating, Wheat: 10
[11]; 125 g ai/ha
  Plant response rating, Wheat: 70
[11]; 250 g ai/ha
  Plant response rating, Wheat: 90
[12]; 62 g ai/ha
  Plant response rating, Waterhemp: 90
[12]; 125 g ai/ha
  Plant response rating, Waterhemp: 95
[12]; 250 g ai/ha
  Plant response rating, Waterhemp: 95
[13]; 31 g ai/ha
  Plant response rating, Barnyardgrass: 85
[13]; 62 g ai/ha
  Plant response rating, Barnyardgrass: 95
[13]; 125 g ai/ha
  Plant response rating, Barnyardgrass: 98
[13]; 250 g ai/ha
  Plant response rating, Barnyardgrass: 98
[14]; 31 g ai/ha
  Plant response rating, Nutsedge, Yellow: 0
[14]; 62 g ai/ha
  Plant response rating, Nutsedge, Yellow: 0
[14]; 125 g ai/ha
  Plant response rating, Nutsedge, Yellow: 30
[14]; 250 g ai/ha
  Plant response rating, Nutsedge, Yellow: 20
[15]; 62 g ai/ha
  Plant response rating, Velvetleaf: 40
[15]; 125 g ai/ha
  Plant response rating, Velvetleaf: 65
[15]; 250 g ai/ha
  Plant response rating, Velvetleaf: 60
